In ChEMBL document CHEMBL4024768, “Discovery and Optimization of Thiazolidinyl and Pyrrolidinyl Derivatives as Inhaled PDE4 Inhibitors for Respiratory Diseases” (J Med Chem, 2017) one finds IC50 data, which are given here for 19 compounds.

Bounds are passed on as bounds.

Experiment [1] can be described thus: Inhibition of PDE4 in human U937 cell lysates assessed as residual cAMP after 2.5 mins by LANCE assay. A general note: In TR-FRET formats the signal depends on donor and acceptor labels being close together.
A short description of experiment [2]: Inhibition of PDE4 in human PBMC assessed as reduction in LPS-induced TNFalpha release after 18 hrs by quantitative ELISA.

The term IC50 denotes the midpoint of a concentration-inhibition curve. In the case of `O=C(O[C@@H](Cc1c(Cl)c[n+]([O-])cc1Cl)c1ccc(OC(F)F)c(OCC2CC2)c1)c1ccccc1`, in experiment [1], the IC50 worked out at 0.072 nM.

For `O=C(O[C@@H](Cc1c(Cl)c[n+]([O-])cc1Cl)c1ccc(OC(F)F)c(OCC2CC2)c1)c1ccccc1S(=O)(=O)c1ccccc1`, the IC50 in experiment [1] came out at 0.323 nM.

As to `CN(C)C(=O)c1cccc(S(=O)(=O)N2CCS[C@@H]2C(=O)O[C@H](Cc2c(Cl)c[n+]([O-])cc2Cl)c2ccc(OC(F)F)c(OCC3CC3)c2)c1`, the IC50 in experiment [1] was found to be 6.4 nM. As to `CN(C)C(=O)c1cccc(C(=O)N2CCS[C@H]2C(=O)O[C@@H](Cc2c(Cl)c[n+]([O-])cc2Cl)c2ccc(OC(F)F)c(OCC3CC3)c2)c1`, the IC50 in experiment [2] was found to be 0.57 nM. In the case of `O=C(c1ccccc1)c1ccsc1C(=O)O[C@@H](Cc1c(Cl)c[n+]([O-])cc1Cl)c1ccc(OC(F)F)c(OCC2CC2)c1`, the IC50 in experiment [1] was 0.32 nM.

With `O=C(O[C@@H](Cc1c(Cl)c[n+]([O-])cc1Cl)c1ccc(OC(F)F)c(OCC2CC2)c1)[C@H]1CCCN1S(=O)(=O)c1ccccc1`, the IC50 in experiment [2] is 0.34 nM; in experiment [1] it was 0.06 nM. As for `CN(C)C(=O)c1cccc(S(=O)(=O)N2CCS[C@H]2C(=O)O[C@H](Cc2c(Cl)c[n+]([O-])cc2Cl)c2ccc(OC(F)F)c(OCC3CC3)c2)c1`, the IC50 in experiment [1] came to 3.01 nM.

As to `CN(C)C(=O)c1cccc(S(=O)(=O)N2CCS[C@H]2C(=O)O)c1`, the IC50 in experiment [2] is > 1000 nM. As for `CN(C)C(=O)c1cccc(S(=O)(=O)N2CCS[C@@H]2C(=O)O[C@@H](Cc2c(Cl)c[n+]([O-])cc2Cl)c2ccc(OC(F)F)c(OCC3CC3)c2)c1`, the concentration for half-maximal inhibition (IC50) in experiment [2] and in experiment [1] was 0.047 nM in each case. Turning to `O=C(O[C@@H](Cc1c(Cl)c[n+]([O-])cc1Cl)c1ccc(OC(F)F)c(OCC2CC2)c1)c1cccn1S(=O)(=O)c1ccccc1`, the concentration for half-maximal inhibition (IC50) in experiment [1] came out at 0.825 nM.

Regarding `COCCS(=O)(=O)N1CCS[C@H]1C(=O)O[C@@H](Cc1c(Cl)c[n+]([O-])cc1Cl)c1ccc(OC(F)F)c(OCC2CC2)c1` (relative stereo), the half-maximal inhibitory concentration (IC50) in experiment [2] was 0.078 nM; in experiment [1], 0.043 nM. The corresponding values for `O=C(O[C@@H](Cc1c(Cl)c[n+]([O-])cc1Cl)c1ccc(OC(F)F)c(OCC2CC2)c1)[C@@H]1CCCN1S(=O)(=O)c1ccccc1` (relative stereo) are 0.4 nM and 0.109 nM.

As to `COc1ccc(S(=O)(=O)N2CCC[C@H]2C(=O)O[C@@H](Cc2c(Cl)c[n+]([O-])cc2Cl)c2ccc(OC(F)F)c(OCC3CC3)c2)cc1OC` (relative stereo), the concentration for half-maximal inhibition (IC50) in experiment [2] was 0.36 nM; in experiment [1] it was 0.0324 nM. In the same order, the values of `CS(=O)(=O)N1CCC[C@H]1C(=O)O[C@@H](Cc1c(Cl)c[n+]([O-])cc1Cl)c1ccc(OC(F)F)c(OCC2CC2)c1` (relative stereo) are 4.2 nM and 0.504 nM.

Consider `COCCC(=O)N1CCS[C@H]1C(=O)O[C@@H](Cc1c(Cl)c[n+]([O-])cc1Cl)c1ccc(OC(F)F)c(OCC2CC2)c1` (relative stereo), for which the IC50 in experiment [2] was 0.86 nM; in experiment [1], 0.028 nM.

For `CN(C)C(=O)c1cccc(S(=O)(=O)N2CCC[C@@H]2C(=O)O[C@@H](Cc2c(Cl)c[n+]([O-])cc2Cl)c2ccc(OC(F)F)c(OCC3CC3)c2)c1` (relative stereo), the IC50 in experiment [2] amounted to 0.38 nM; in experiment [1], 0.0533 nM. As for `COc1cc([C@H](Cc2c(Cl)c[n+]([O-])cc2Cl)OC(=O)[C@@H]2SCCN2S(=O)(=O)c2cccc(C(=O)N(C)C)c2)ccc1OC(F)F` (relative stereo), the half-maximal inhibitory concentration (IC50) was 0.032 nM in experiment [2] and 0.014 nM in experiment [1].

Take `O=C(O[C@@H](Cc1c(Cl)c[n+]([O-])cc1Cl)c1ccc(OC(F)F)c(OCC2CC2)c1)[C@@H]1SCCN1S(=O)(=O)c1ccccc1` (relative stereo): the IC50 in experiment [2] was determined as 0.26 nM; in experiment [1], 0.176 nM.

On to `COCCS(=O)(=O)N1CCC[C@H]1C(=O)O[C@@H](Cc1c(Cl)c[n+]([O-])cc1Cl)c1ccc(OC(F)F)c(OCC2CC2)c1` (relative stereo), for which the values for the IC50 in experiment [2] and in experiment [1] were 0.31 nM and 0.0442 nM, respectively.
